The molecules below were run against T1, hTSHR (Homo sapiens, UniProt P16473) (assay: hTSHR TR-FRET cAMP Assay (inhibition of M22-stimulated cAMP production)). Details: Expi293F Inducible cells stably expressing hTSHR; cAMP HTRF; stimulated with EC80 of anti-TSHR antibody M22; 15 min compound preincubation, 30 min at 37° C.; read-out: Activity (IC50 bins).
T1 construct: expressed in transfected cells
Assay type: cell-based
Experimental: Assays were performed using Expi293F Inducible cells (Invitrogen) stably expressing hTSHR via a pcZeo TetO DNA plasmid. Cell lines were maintained in suspension in Expi293 Expression Medium (ThermoFisher Scientific) supplemented with 10 µg/mL Blasticidin and 10 μg/mL Zeocin and incubated at 37° C., 8% CO2, with shaking. hTSHR cells were incubated overnight at 32° C., 5% C02, with shaking, but […] Doxycycline. Assay-ready aliquots were prepared by harvesting each cell type separately 24-hours post-induction. Cells were pelleted at 4° C., resuspended in Expi293 Expression media+10% DMSO, aliquoted, and kept frozen at −80° C. until ready for use.
For the assay, concentration-response curves of test and reference compounds were added to 384-well plates using an Echo 650 liquid handler (Beckman Coulter) and backfilled with DMSO to a final concentration of 0.5%. cAMP was measured using the cisbio cAMP Gs dynamic HTRF kit (PerkinElmer) according to manufacturer instructions. Aliquots of frozen hTSHR cells were quickly thawed and washed with phosphate-buffered saline (Sigma-Aldrich) to remove media and DMSO. The cells were resuspended in kit-supplied Stimulation Buffer at 0.8×10^6 cells/mL. 7.5 μL of the hTSHR cell dilution were added to each well of the assay plate and incubated with the compounds for 15 minutes in a 37 C, 0% CO2 incubator. 2.5 μL of Vehicle control or an EC80 concentration of recombinant human anti-TSHR antibody (M22, Creative Biolabs) was added to stimulate cAMP production. Cells were incubated with for 30 minutes at 37° C., 0% CO2. Following this incubation, the cells were lysed and accumulated cAMP was detected through the addition of kit-supplied lysis buffer containing d2-reagent and Eu-cryptate antibody. The HTRF signal was quantified using a BMG Clariostar plate reader optimized for HTRF assays. The HTRF ratio was determined by dividing the signal output at […] by that at 620 nm. Data were normalized to the signal produced by the EC80 concentration of either M22 or FSH (0% inhibition) and vehicle (no agonist, 100% inhibition).

T1 sequence (P16473 21-764): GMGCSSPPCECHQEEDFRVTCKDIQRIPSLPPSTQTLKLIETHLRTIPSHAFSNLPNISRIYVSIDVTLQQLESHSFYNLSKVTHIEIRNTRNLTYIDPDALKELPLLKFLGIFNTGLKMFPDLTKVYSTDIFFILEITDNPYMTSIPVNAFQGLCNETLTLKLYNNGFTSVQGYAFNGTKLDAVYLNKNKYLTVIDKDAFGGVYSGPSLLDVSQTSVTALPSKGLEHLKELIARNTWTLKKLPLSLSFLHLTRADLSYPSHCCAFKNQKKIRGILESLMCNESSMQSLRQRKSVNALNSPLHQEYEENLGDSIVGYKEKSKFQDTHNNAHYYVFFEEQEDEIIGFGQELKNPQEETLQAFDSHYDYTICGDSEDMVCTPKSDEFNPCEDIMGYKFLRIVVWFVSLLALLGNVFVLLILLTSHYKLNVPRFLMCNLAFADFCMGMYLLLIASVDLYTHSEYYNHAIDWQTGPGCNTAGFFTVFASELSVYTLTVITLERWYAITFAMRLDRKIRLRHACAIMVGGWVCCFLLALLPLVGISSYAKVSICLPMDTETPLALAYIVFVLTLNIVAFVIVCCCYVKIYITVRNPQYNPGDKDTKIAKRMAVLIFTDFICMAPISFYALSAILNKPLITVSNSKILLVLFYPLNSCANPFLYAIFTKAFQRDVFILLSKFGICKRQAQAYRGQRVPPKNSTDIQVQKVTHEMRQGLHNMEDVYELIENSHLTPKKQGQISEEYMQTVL

`CC1Oc2cc(NC(=O)NC(C)(C)C)ccc2N(Cc2cccc(Cl)c2)C1=O` (single isomer, unassigned) [Example 43] and `CC(C)(C)NC(=O)Nc1ccc2c(c1)CCC(=O)N2Cc1cccc(Cl)c1` [Example 6, 1-(tert-butyl)-3-(1-(3-chlorobenzyl)-2-oxo-1,2,3,4-tetrahydroquinolin-6-yl)urea] cannot be ordered by IC50: under 100 nM for the first, under 100 nM for the second.

First: C[C@H]1Oc2cc(NC(=O)NC(C)(C)C)ccc2N([C@@H](C)c2cncc(C(F)(F)F)n2)C1=O (single isomer, unassigned) [Example 306]
Second: C[C@H]1Oc2cc(NC(=O)NC(C)(C)C)ccc2N([C@@H](C)c2ccnc(C(F)(F)F)n2)C1=O (single isomer, unassigned) [Example 310]
The IC50 of the first is higher: over 1000 nM for the first, 100 to 1000 nM for the second.

Going from `C[C@H](c1ccnc(C(F)(F)F)n1)N1C(=O)[C@@H](C)Oc2cc(NC(=O)NC(C)(C)C)ccc21` (single isomer, unassigned) [Example 311] to `CC1Oc2cc(NC(=O)NC(C)(C)C)ccc2N(Cc2cccc(Cl)c2)C1=O` (stereo in doubt) [Example 44, (S)-1-(tert-butyl)-3-(4-(3-chlorobenzyl)-2-methyl-3-oxo-3,4-dihydro-2H-benzo[b][1,4]oxazin-7-yl)urea], the IC50 falls from over 1000 nM to under 100 nM. The second is the more potent here.

`C[C@H]1Cc2cc(NC(=O)NC(C)(C)C)c(F)cc2N(Cc2ccccc2)C1=O` (single isomer, unassigned) [Example 333] and `C[C@@H]1Cc2cc(NC(=O)NC(C)(C)C)c(F)cc2N(Cc2ccccc2)C1=O` (single isomer, unassigned) [Example 334] cannot be ordered by IC50: over 1000 nM for the first, over 1000 nM for the second.

First: C[C@@H](c1cccc(C(O)C(F)(F)F)n1)n1c(=O)cnc2cc(NC(=O)NC(C)(C)C)ccc21 (stereo in doubt) [Example 154, 1-(tert-butyl)-3-(2-oxo-1-((S)-1-(6-((R)-2,2,2-trifluoro-1-hydroxyethyl)pyridin-2-yl)ethyl)-1,2-dihydroquinoxalin-6-yl)urea]
Second: C[C@@H](c1cccc(OC(F)(F)F)c1)n1c(=O)cnc2cc(NC(=O)C3CCC3(C)C)ccc21 (stereo in doubt) [Example 219, (S)-2,2-dimethyl-N-(2-oxo-1-((S)-1-(3-(trifluoromethoxy)phenyl)ethyl)-1,2-dihydroquinoxalin-6-yl) cyclobutane-1-carboxamide]
The IC50 of the first is higher: 100 to 1000 nM for the first, under 100 nM for the second. The second is the more potent here.

First: CC(c1cccc(OC(F)(F)F)c1)n1c(=O)cnc2cc(NC(=O)[C@H]3CCC3(C)C)ccc21 (stereo in doubt) [Example 220, (S)-2,2-dimethyl-N-(2-oxo-1-((R)-1-(3-(trifluoromethoxy)phenyl)ethyl)-1,2-dihydroquinoxalin-6-yl) cyclobutane-1-carboxamide]
Second: CC(C)(C)NC(=O)Nc1ccc2c(c1)CCC(=O)N2Cc1cccc(C(F)(F)F)c1 [Example 23, 1-(tert-butyl)-3-(2-oxo-1-(3-(trifluoromethyl)benzyl)-1,2,3,4-tetrahydroquinolin-6-yl)urea]
The IC50 of the first is higher: 100 to 1000 nM for the first, under 100 nM for the second. The second is the more potent here.

Compared with `CC1Oc2nc(NC(=O)NC(C)(C)C)c(C(F)(F)F)cc2N(Cc2ccccc2)C1=O` (stereo in doubt) [Example 378, (R)-1-(1-benzyl-3-methyl-2-oxo-7-(trifluoromethyl)-2,3-dihydro-1H-pyrido[2,3-b][1,4]oxazin-6-yl)-3-(tert-butyl)urea], `CC1Cc2cc(NC(=O)NC(C)(C)C)ccc2N(Cc2ccccc2)C1=O` (stereo not drawn) [Example 5, 1-(1-benzyl-3-methyl-2-oxo-1,2,3,4-tetrahydroquinolin-6-yl)-3-(tert-butyl)urea] is lower in IC50: 100 to 1000 nM for the first, under 100 nM for the second. The second is the more potent here.

Compared with `CC(C)(C)NC(=O)Nc1ccc2c(c1)CCC(=O)N2Cc1ccccc1` [Example 1, 1-(1-benzyl-2-oxo-1,2,3,4-tetrahydroquinolin-6-yl)-3-(tert-butyl)urea], `CC(C)(CCO)NC(=O)Nc1ccc2c(c1)CCC(=O)N2Cc1ccccc1` [Example 16, 1-(1-benzyl-2-oxo-1,2,3,4-tetrahydroquinolin-6-yl)-3-(4-hydroxy-2-methylbutan-2-yl)urea] is higher in IC50: under 100 nM for the first, 100 to 1000 nM for the second.

Compared with `CC(C)(C)NC(=O)Nc1ccc2c(c1)CCC(=O)N2Cc1ccccn1` [Example 2, 1-(tert-butyl)-3-(2-oxo-1-(pyridin-2-ylmethyl)-1,2,3,4-tetrahydroquinolin-6-yl)urea], `CC(C)(C)NC(=O)Nc1ccc2c(c1)CCC(=O)N2Cc1ccccc1Cl` [Example 8, 1-(tert-butyl)-3-(1-(2-chlorobenzyl)-2-oxo-1,2,3,4-tetrahydroquinolin-6-yl)urea] is lower in IC50: over 1000 nM for the first, 100 to 1000 nM for the second.

`CC(c1ccccc1)N1C(=O)CCc2cc(NC(=O)NC(C)(C)C)ccc21` (stereo not drawn) [Example 3, 1-(tert-butyl)-3-(2-oxo-1-(1-phenylethyl)-1,2,3,4-tetrahydroquinolin-6-yl)urea] and `C[C@@H](c1ccccc1)N1C(=O)CCc2cc(NC(=O)NC(C)(C)C)ccc21` [Example 13, (S)-1-(tert-butyl)-3-(2-oxo-1-(1-phenylethyl)-1,2,3,4-tetrahydroquinolin-6-yl)urea] cannot be ordered by IC50: under 100 nM for the first, under 100 nM for the second.

Going from `Cn1ccc(CN2C(=O)CCc3cc(NC(=O)NC(C)(C)C)ccc32)n1` [Example 4, 1-(tert-butyl)-3-(1-((1-methyl-1H-pyrazol-3-yl)methyl)-2-oxo-1,2,3,4-tetrahydroquinolin-6-yl)urea] to `Cc1cccc(CN2C(=O)CCc3cc(NC(=O)NC(C)(C)C)ccc32)c1` [Example 21, 1-(tert-butyl)-3-(1-(3-methylbenzyl)-2-oxo-1,2,3,4-tetrahydroquinolin-6-yl)urea], the IC50 falls from over 1000 nM to under 100 nM. The second is the more potent here.

Compared with `CC(C)(C)NC(=O)Nc1ccc2c(c1)OCC(=O)N2Cc1ccccc1` [Example 7, 1-(4-benzyl-3-oxo-3,4-dihydro-2H-benzo[b][1,4]oxazin-7-yl)-3-(tert-butyl)urea], `CC1CC(=O)N(Cc2ccccc2)c2ccc(NC(=O)NC(C)(C)C)cc21` (stereo not drawn) [Example 15, 1-(1-benzyl-4-methyl-2-oxo-1,2,3,4-tetrahydroquinolin-6-yl)-3-(tert-butyl)urea] is higher in IC50: under 100 nM for the first, over 1000 nM for the second. The first is the more potent here.

First: CC(C)(C)OC(=O)Nc1ccc2c(c1)CCC(=O)N2Cc1ccccc1 [Example 9, tert-butyl (1-benzyl-2-oxo-1,2,3,4-tetrahydroquinolin-6-yl)carbamate]
Second: COCC1Cc2cc(NC(=O)NC(C)(C)C)ccc2N(Cc2ccccc2)C1=O (stereo not drawn) [Example 11, 1-(1-benzyl-3-(methoxymethyl)-2-oxo-1,2,3,4-tetrahydroquinolin-6-yl)-3-(tert-butyl)urea]
The IC50 of the first is lower: under 100 nM for the first, 100 to 1000 nM for the second.

Compared with `CC(C)(C)NC(=O)Nc1ccc2c(c1)C(C)(C)CC(=O)N2Cc1ccccc1` [Example 10, 1-(1-benzyl-4,4-dimethyl-2-oxo-1,2,3,4-tetrahydroquinolin-6-yl)-3-(tert-butyl)urea], `CN1Cc2cc(NC(=O)NC(C)(C)C)ccc2N(Cc2ccccc2)C1=O` [Example 12, 1-(1-benzyl-3-methyl-2-oxo-1,2,3,4-tetrahydroquinazolin-6-yl)-3-(tert-butyl)urea] is lower in IC50: over 1000 nM for the first, 100 to 1000 nM for the second. The second is the more potent here.

First: C[C@H](c1ccccc1)N1C(=O)CCc2cc(NC(=O)NC(C)(C)C)ccc21 [Example 14, (R)-1-(tert-butyl)-3-(2-oxo-1-(1-phenylethyl)-1,2,3,4-tetrahydroquinolin-6-yl)urea]
Second: CC(C)(C)NC(=O)Nc1ccc2c(c1)CCC(=O)N2Cc1ccccc1F [Example 19, 3-tert-butyl-1-{1-[(2-fluorophenyl)methyl]-2-oxo-3,4-dihydroquinolin-6-yl}urea]
The IC50 of the first is higher: over 1000 nM for the first, under 100 nM for the second. The second is the more potent here.

`CC(C)(C)NC(=O)Nc1ccc2c(c1)CCC(=O)N2Cc1ccc(C#N)cc1` [Example 17, 1-(tert-butyl)-3-(1-(4-cyanobenzyl)-2-oxo-1,2,3,4-tetrahydroquinolin-6-yl)urea] and `CC(C)(C)NC(=O)Nc1ccc2c(c1)CCC(=O)N2Cc1cccc(C#N)c1` [Example 18, 1-(tert-butyl)-3-(1-(3-cyanobenzyl)-2-oxo-1,2,3,4-tetrahydroquinolin-6-yl)urea] cannot be ordered by IC50: over 1000 nM for the first, over 1000 nM for the second.

`CC(C)(C)NC(=O)Nc1ccc2c(c1)CCC(=O)N2Cc1ccccc1C#N` [Example 20, 1-(tert-butyl)-3-(1-(2-cyanobenzyl)-2-oxo-1,2,3,4-tetrahydroquinolin-6-yl)urea] and `CC(C)(C)NC(=O)Nc1ccc2c(c1)CCC(=O)N2Cc1cc(Cl)ccc1Cl` [Example 24, 3-tert-butyl-1-{1-[(2,5-dichlorophenyl)methyl]-2-oxo-3,4-dihydroquinolin-6-yl}urea] cannot be ordered by IC50: under 100 nM for the first, under 100 nM for the second.

`COc1cccc(CN2C(=O)CCc3cc(NC(=O)NC(C)(C)C)ccc32)c1` [Example 22, 1-(tert-butyl)-3-(1-(3-methoxybenzyl)-2-oxo-1,2,3,4-tetrahydroquinolin-6-yl)urea] and `CC(C)(C)NC(=O)Nc1ccc2c(c1)CCC(=O)N2Cc1cc(Cl)cc(Cl)c1` [Example 25, 1-(tert-butyl)-3-(1-(3,5-dichlorobenzyl)-2-oxo-1,2,3,4-tetrahydroquinolin-6-yl) urea] cannot be ordered by IC50: under 100 nM for the first, under 100 nM for the second.

From patent US20260365628A1, “SUBSTITUTED 3,4-DIHYDROQUINOLINONE INHIBITORS OF TSHR” (Septerna, Inc., priority 2022, published 2026)
